Columns and labels:
Assay type in all cases: functional
[1] = test system: SR; test: Cytotoxicity against human SR cells assessed as growth inhibition after 48 hrs by sulforhodamine B assay; conditions: for CC50: read-out: LC50 (the source's name)
[2] = test system: A549; test: Cytotoxicity against human A549/ATCC cells assessed as growth inhibition after 48 hrs by sulforhodamine B assay; conditions: A549, 48 h
[3] = test system: NCI-H460; test: Cytotoxicity against human NCI-H460 cells assessed as growth inhibition after 48 hrs by sulforhodamine B assay; conditions: NCI-H460, 48 h
[4] = test system: OVCAR-4; test: Cytotoxicity against human OVCAR4 cells assessed as growth inhibition after 48 hrs by sulforhodamine B assay; conditions: OVCAR-4, 48 h
[5] = test system: 786-0; test: Cytotoxicity against human 786-0 cells assessed as growth inhibition after 48 hrs by sulforhodamine B assay; conditions: 786-0, 48 h
[6] = test system: RXF 393; test: Cytotoxicity against human RXF393 cells assessed as growth inhibition after 48 hrs by sulforhodamine B assay; conditions: RXF 393, 48 h
[7] = test system: U-251; test: Cytotoxicity against human U251 cells assessed as cell growth at 0.01 uM after 48 hrs by sulforhodamine B assay relative to control; conditions: U-251, 48 h, read-out: Activity
[8] = test system: SF-539; test: Cytotoxicity against human SF539 cells assessed as cell growth at 0.01 uM after 48 hrs by sulforhodamine B assay relative to control; conditions: SF-539, 48 h, read-out: Activity
[9] = test system: HCT-15; test: Cytotoxicity against human HCT15 cells assessed as cell growth at 0.01 uM after 48 hrs by sulforhodamine B assay relative to control; conditions: HCT-15, 48 h, read-out: Activity
[10] = test system: A549; test: Cytotoxicity against human A549/ATCC cells assessed as cell growth at 0.01 uM after 48 hrs by sulforhodamine B assay relative to control; conditions: A549, 48 h, read-out: Activity
[11] = test system: HL-60(TB); test: Cytotoxicity against human HL-60(TB) cells assessed as cell growth at 0.01 uM after 48 hrs by sulforhodamine B assay relative to control; conditions: HL-60, 48 h, read-out: Activity
[12] = test system: SN12C; test: Cytotoxicity against human SN12C cells assessed as cell growth at 0.01 uM after 48 hrs by sulforhodamine B assay relative to control; conditions: read-out: Activity
[13] = test system: MDA-MB-468; test: Cytotoxicity against human MDA-MB-468 cells assessed as cell growth at 0.01 uM after 48 hrs by sulforhodamine B assay relative to control; conditions: MDA-MB-468, 48 h, read-out: Activity
[14] = test system: NCI-H522; test: Cytotoxicity against human NCI-H522 cells assessed as cell growth at 0.1 uM after 48 hrs by sulforhodamine B assay relative to control; conditions: NCI-H522, 48 h, read-out: Activity
[15] = test system: U-251; test: Cytotoxicity against human U251 cells assessed as cell growth at 0.1 uM after 48 hrs by sulforhodamine B assay relative to control; conditions: U-251, 48 h, read-out: Activity
[16] = test system: 786-0; test: Cytotoxicity against human 786-0 cells assessed as cell growth at 0.1 uM after 48 hrs by sulforhodamine B assay relative to control; conditions: 786-0, 48 h, read-out: Activity
[17] = test system: ACHN; test: Cytotoxicity against human ACHN cells assessed as cell growth at 0.1 uM after 48 hrs by sulforhodamine B assay relative to control; conditions: read-out: Activity
[18] = test system: RXF 393; test: Cytotoxicity against human RXF393 cells assessed as cell growth at 0.1 uM after 48 hrs by sulforhodamine B assay relative to control; conditions: RXF 393, 48 h, read-out: Activity
[19] = test system: NCI-H226; test: Cytotoxicity against human NCI-H226 cells assessed as cell growth at 1 uM after 48 hrs by sulforhodamine B assay relative to control; conditions: NCI-H226, 48 h, read-out: Activity
[20] = test system: NCI-H522; test: Cytotoxicity against human NCI-H522 cells assessed as cell growth at 1 uM after 48 hrs by sulforhodamine B assay relative to control; conditions: NCI-H522, 48 h, read-out: Activity
[21] = test system: SW-620; test: Cytotoxicity against human SW620 cells assessed as cell growth at 1 uM after 48 hrs by sulforhodamine B assay relative to control; conditions: SW-620, 48 h, read-out: Activity
[22] = test system: SK-MEL-5; test: Cytotoxicity against human SK-MEL-5 cells assessed as cell growth at 1 uM after 48 hrs by sulforhodamine B assay relative to control; conditions: SK-MEL-5, 48 h, read-out: Activity
[23] = test system: IGROV-1; test: Cytotoxicity against human IGROV1 cells assessed as cell growth at 1 uM after 48 hrs by sulforhodamine B assay relative to control; conditions: IGROV-1, 48 h, read-out: Activity
[24] = test system: NCI-H460; test: Cytotoxicity against human NCI-H460 cells assessed as cell growth at 10 uM after 48 hrs by sulforhodamine B assay relative to control; conditions: NCI-H460, 48 h, read-out: Activity
[25] = test system: HCT-15; test: Cytotoxicity against human HCT15 cells assessed as cell growth at 10 uM after 48 hrs by sulforhodamine B assay relative to control; conditions: HCT-15, 48 h, read-out: Activity
[26] = test system: M14; test: Cytotoxicity against human M14 cells assessed as cell growth at 10 uM after 48 hrs by sulforhodamine B assay relative to control; conditions: M14, 48 h, read-out: Activity
[27] = test system: OVCAR-3; test: Cytotoxicity against human OVCAR3 cells assessed as cell growth at 10 uM after 48 hrs by sulforhodamine B assay relative to control; conditions: OVCAR-3, 48 h, read-out: Activity
[28] = test system: OVCAR-5; test: Cytotoxicity against human OVCAR5 cells assessed as cell growth at 10 uM after 48 hrs by sulforhodamine B assay relative to control; conditions: OVCAR-5, 48 h, read-out: Activity
[29] = test system: DU-145; test: Cytotoxicity against human DU145 cells assessed as cell growth at 10 uM after 48 hrs by sulforhodamine B assay relative to control; conditions: DU-145, 48 h, read-out: Activity
[30] = test system: Hs-578T; test: Cytotoxicity against human Hs 578T cells assessed as cell growth at 10 uM after 48 hrs by sulforhodamine B assay relative to control; conditions: read-out: Activity
[31] = test system: CCRF-CEM; test: Cytotoxicity against human CCRF-CEM cells assessed as cell growth at 100 uM after 48 hrs by sulforhodamine B assay relative to control; conditions: read-out: Activity
[32] = test system: COLO 205; test: Cytotoxicity against human COLO205 cells assessed as cell growth at 100 uM after 48 hrs by sulforhodamine B assay relative to control; conditions: COLO 205, 48 h, read-out: Activity
[33] = test system: HT-29; test: Cytotoxicity against human HT-29 cells assessed as cell growth at 100 uM after 48 hrs by sulforhodamine B assay relative to control; conditions: HT-29, 48 h, read-out: Activity
[34] = test system: SF-268; test: Cytotoxicity against human SF268 cells assessed as cell growth at 100 uM after 48 hrs by sulforhodamine B assay relative to control; conditions: SF-268, 48 h, read-out: Activity
[35] = test system: M14; test: Cytotoxicity against human M14 cells assessed as cell growth at 100 uM after 48 hrs by sulforhodamine B assay relative to control; conditions: M14, 48 h, read-out: Activity
[36] = test system: Hs-578T; test: Cytotoxicity against human Hs 578T cells assessed as cell growth at 100 uM after 48 hrs by sulforhodamine B assay relative to control; conditions: read-out: Activity

COc1ccc(-c2cc(/C=C/C(=O)c3ccc(OC)c(OC)c3)[nH]n2)cc1
GI50 [1]: 0.67 µM | TGI [1]: 3.74 µM | CC50 [1]: > 100 µM | GI50 [2]: 1.88 µM | LC50 (concentration giving 50% net cell kill) [2]: > 100 µM | TGI [2]: 5.95 µM | GI50 [3]: 1.64 µM | LC50 [3]: 22.8 µM | TGI [3]: 4.34 µM | GI50 [4]: 0.59 µM | LC50 [4]: 28.4 µM | TGI [4]: 3.87 µM | GI50 [5]: 1.6 µM | LC50 [5]: 5.96 µM | TGI [5]: 3.09 µM | GI50 [6]: 1.39 µM | LC50 (concentration killing 50% of cells) [6]: 6.2 µM | TGI [6]: 2.94 µM | growth at 0.01 µM [7]: 95% | growth at 0.01 µM [8]: 95% | growth at 0.01 µM [9]: 95% | growth at 0.01 µM [10]: 93% | growth at 0.01 µM [11]: 102% | growth at 0.01 µM [12]: 95% | growth at 0.01 µM [13]: 87% | growth at 0.1 µM [14]: 111% | growth at 0.1 µM [15]: 84% | growth at 0.1 µM [16]: 102% | growth at 0.1 µM [17]: 96% | growth at 0.1 µM [18]: 93% | growth at 1 µM [19]: 76% | growth at 1 µM [20]: 11% | growth at 1 µM [21]: 65% | growth at 1 µM [22]: 88% | growth at 1 µM [23]: 77% | growth at 10 µM [24]: -43% | growth at 10 µM [25]: -53% | growth at 10 µM [26]: -42% | growth at 10 µM [27]: -95% | growth at 10 µM [28]: -49% | growth at 10 µM [29]: -91% | growth at 10 µM [30]: 23% | growth at 100 µM [31]: -47% | growth at 100 µM [32]: -77% | growth at 100 µM [33]: -81% | growth at 100 µM [34]: -63% | growth at 100 µM [35]: -99% | growth at 100 µM [36]: -26%

COc1ccc(-c2cc(/C=C/C(=O)c3ccc(N)cc3)[nH]n2)cc1OC
GI50 [1]: 0.58 µM | TGI [1]: 5.31 µM | CC50 [1]: > 100 µM | GI50 [2]: 2.75 µM | LC50 (concentration giving 50% net cell kill) [2]: 45.2 µM | TGI [2]: 10.1 µM | GI50 [3]: 2.03 µM | LC50 [3]: 10.6 µM | TGI [3]: 4.53 µM | GI50 [4]: 2.68 µM | LC50 [4]: 40.5 µM | TGI [4]: 15.8 µM | GI50 [5]: 1.88 µM | LC50 [5]: 10.8 µM | TGI [5]: 4.39 µM | GI50 [6]: 2.15 µM | LC50 (concentration killing 50% of cells) [6]: 15.9 µM | TGI [6]: 5.12 µM | growth at 0.01 µM [7]: 95% | growth at 0.01 µM [8]: 93% | growth at 0.01 µM [9]: 93% | growth at 0.01 µM [10]: 97% | growth at 0.01 µM [11]: 104% | growth at 0.01 µM [12]: 101% | growth at 0.01 µM [13]: 94% | growth at 0.1 µM [14]: 95% | growth at 0.1 µM [15]: 95% | growth at 0.1 µM [16]: 95% | growth at 0.1 µM [17]: 93% | growth at 0.1 µM [18]: 92% | growth at 1 µM [19]: 86% | growth at 1 µM [20]: 87% | growth at 1 µM [21]: 95% | growth at 1 µM [22]: 94% | growth at 1 µM [23]: 100% | growth at 10 µM [24]: -49% | growth at 10 µM [25]: -27% | growth at 10 µM [26]: -42% | growth at 10 µM [27]: -56% | growth at 10 µM [28]: -10% | growth at 10 µM [29]: 15% | growth at 10 µM [30]: 40% | growth at 100 µM [31]: -22% | growth at 100 µM [32]: -78% | growth at 100 µM [33]: -59% | growth at 100 µM [34]: -80% | growth at 100 µM [35]: -90% | growth at 100 µM [36]: 4%

— ChEMBL document CHEMBL4138123, “Design, synthesis and biological evaluation of novel pyrazolochalcones as potential modulators of PI3K/Akt/mTOR pathway and inducers of apoptosis in breast cancer cells” (Eur J Med Chem, 2017)
